Measured values published in US5989846A, “Assays to identify inducers of plant defense resistance” (Rutgers, The State University of New Jersey, priority 1995, dated 1999).

Key:
catalase = experiment: Catalase activity of crude extracts; type: biochemical
From the text: In the presence of SA, the catalase activity of the highly purified SABP was inhibited by 80% (Table 6). A similar level of inhibition of catalase activity by SA (^- 70%) was also observed with crude extracts; inhibition appeared to be reversible since the catalase activity could be largely recovered by extensive dialysis. To assess the functional relevance of catalase inhibition by SA, several SA analogues, with or without biological activity in inducing plant PR genes and disease resistance, were compared for their ability to inhibit the catalase activity of SABP (Table 6).

ascorbate peroxidase = experiment: Ascorbate peroxidase activity in tobacco leaf extracts; type: biochemical, Nicotiana tabacum cv. Xanthi nc
Procedure, shortened: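 Soluble extracts from leaves of 6–8-week Nicotiana tabacum cv. Xanthi nc, desalted into 50 mM potassium phosphate pH 7 with 100 μM ascorbate, were assayed (30–50 μg protein) with or without 100 or 1000 μM SA or INA. Ascorbate oxidation followed as A290 decrease; means of three replicates.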

[1] = target: salicylic acid binding protein; experiment: Scatchard analysis of [14C] salicylic acid binding; details: tobacco SABP; [14C] salicylic acid 2 to 70 μM
Method: Kd is defined herein as the concentration of salicylic acid needed to occupy 50% of the binding sites on the salicylic acid binding protein when the binding process reaches its equilibrium. Thus, a smaller value of Kd indicates a stronger interaction between salicylic acid and salicylic acid binding protein and vice versa. Kd is determined by measuring the amounts of salicylic acid bound to salicylic acid binding-protein at various concentrations of salicylic acid and then plotting the ratio of bound to free, salicylic acid concentrations versus bound salicylic acid concentrations to give a linear plot with a slope of -1/Kd. […]
A key element during the characterization and the purification process is a simple, inexpensive, sensitive and reliable method for determining the salicylic acid binding activity. […] (specifically radioactivity 55 Ci/mol; purchased from New England Nuclear), 150 μl of proteins binding sample was loaded onto the tube column, which was then rapidly centrifuged for 2 minutes at full speed and the solution of proteins and bound [^14 C-salicylic acid] that was excluded from the gel was collected into another tube that had been placed under the tube column during the centrifugation. […]

H2 O2 = experiment: Abundance of H2O2 in treated tobacco leaves; type: in vivo; details: FIG. 11
From the text: The abundance of H2 O2 increased in SA- or 3AT-treated tobacco leaves by 50-60% over the control levels observed in water-treated leaves. […] Thus, elevated levels of H2 O2, and in turn, enhanced oxidative stress in vivo, were consistent with inhibition of catalase activity by SA observed in vitro.

[2] = target: cucumber salicylic acid binding protein; experiment: Salicylic acid binding activity from cucumber; details: cucumber derived salicylic acid binding protein
From the text: Several, of the MAbs that bind to the tobacco 57 kDa protein and 280 kDa complex also recognize a 57 kDa protein in fresh homogenates from cucumbers. The salicylic acid binding activity from cucumber has similar affinity (Kd) and specificity as the tobacco salicylic acid binding protein. Like the tobacco salicylic acid binding protein, the cucumber salicylic acid binding protein also has a large native molecular weight (approximately 200 kDa). Thus, it appears that the cucumber salicylic acid binding protein is also a complex composed of multiple subunits at least one of which is probably the 57 kDa protein recognized by the MAbs made against the tobacco salicylic acid binding protein. It should be noted, however, that there may be some minor variation in molecular weight and Kd for salicylic acid binding protein from one plant species to the next. For example, cucumber derived salicylic acid binding protein appears to have an apparent average native molecular weight of about 200 kDa and a Kd of about 30±5 μM.

[3] = tested on: resistance or PR gene expression; design: key: ++: indicates a high level of biological activity; +: indicates a lower level of biological activity; ±: indicates low, but detectable biological activity in some assays; -: indicates no biological activity; details: Table 3; values reported in literature; cited from earlier work

## O=C(O)c1ccccc1O [salicylic acid, 2-hydroxybenzoic acid]
catalase; crude extracts
  Inhibition of catalase activity: ~70%
catalase; extensive dialysis
  Reversibility of catalase inhibition: reversible
Ascorbate peroxidase; 200 μM compound, corrected for quenching of auto oxidation
  % Inhibition of ascorbate peroxidase: 83 ± 9%
Ascorbate peroxidase; 750 μM ascorbate, 25 to 500 μM compound, FIG. 17, read-out: Concentration necessary for 50% inhibition (I50) of ascorbate peroxidase
  IC50: ~80 µM
Ascorbate peroxidase; APX, 100 μM compound
  Activity: 2.0 ± 0.2 μmols of oxidized substrate mi
  Inhibition: 59%
Ascorbate peroxidase; APX, 1,000 μM compound
  Activity: 0.24 ± 0.1 μmols of oxidized substrate mi
  Inhibition: 95%
[1]
  Kd: 14 ± 5 µM
H2 O2
  Increase in abundance of H2O2 over water-treated leaves: 50-60%
[2]
  Kd: ~30 µM
[3]
  Biological activity: ++
